Laboratory results from ChEMBL document CHEMBL4130400, “Development of GLUT4-selective antagonists for multiple myeloma therapy” (Eur J Med Chem, 2017).
The source made the active and inactive calls. No cut-off for these calls is given here.

Assays:
[1] = test system: KMS-11; experiment: Antiproliferative activity against human KMS11 cells over-expressing GFP after 72 hrs by CellTiter-Glo assay; assay type: functional, cell-based; details: KMS-11, 72 h
[2] = biological target: T1, Solute carrier family 2, facilitated glucose transporter member 8 (Homo sapiens, UniProt Q9NY64); experiment: Antagonist activity at human GLUT8 expressed in HEK293 cells transfected with GLUT1 shRNA assessed as inhibition of [3H]2-deoxy-D-glucose uptake preincubated for 5 mins followed by [3H]2-deoxy-D-glucose addition and measured after 6 mins; assay type: cell-based
T1 sequence (Q9NY64 whole entry): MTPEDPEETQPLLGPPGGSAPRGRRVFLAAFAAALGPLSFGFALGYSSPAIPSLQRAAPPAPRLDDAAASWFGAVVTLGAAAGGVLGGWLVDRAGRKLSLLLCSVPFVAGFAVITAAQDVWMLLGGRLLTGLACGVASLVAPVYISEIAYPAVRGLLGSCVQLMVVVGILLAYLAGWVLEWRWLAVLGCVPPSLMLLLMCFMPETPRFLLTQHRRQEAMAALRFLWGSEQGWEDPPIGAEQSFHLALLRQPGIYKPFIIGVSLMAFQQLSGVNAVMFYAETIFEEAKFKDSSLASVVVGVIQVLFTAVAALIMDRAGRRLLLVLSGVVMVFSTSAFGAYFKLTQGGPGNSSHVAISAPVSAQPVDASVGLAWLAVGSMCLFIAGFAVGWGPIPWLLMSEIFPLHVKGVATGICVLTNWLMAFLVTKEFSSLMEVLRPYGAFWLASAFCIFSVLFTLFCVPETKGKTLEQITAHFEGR

[3] = biological target: T2, Solute carrier family 2, facilitated glucose transporter member 1 (Homo sapiens, UniProt P11166); experiment: Antagonist activity at human GLUT1 expressed in HEK293 cells transfected with GLUT1 shRNA assessed as inhibition of [3H]2-deoxy-D-glucose uptake preincubated for 5 mins followed by [3H]2-deoxy-D-glucose addition and measured after 6 mins; assay type: cell-based
T2 sequence (P11166 whole entry): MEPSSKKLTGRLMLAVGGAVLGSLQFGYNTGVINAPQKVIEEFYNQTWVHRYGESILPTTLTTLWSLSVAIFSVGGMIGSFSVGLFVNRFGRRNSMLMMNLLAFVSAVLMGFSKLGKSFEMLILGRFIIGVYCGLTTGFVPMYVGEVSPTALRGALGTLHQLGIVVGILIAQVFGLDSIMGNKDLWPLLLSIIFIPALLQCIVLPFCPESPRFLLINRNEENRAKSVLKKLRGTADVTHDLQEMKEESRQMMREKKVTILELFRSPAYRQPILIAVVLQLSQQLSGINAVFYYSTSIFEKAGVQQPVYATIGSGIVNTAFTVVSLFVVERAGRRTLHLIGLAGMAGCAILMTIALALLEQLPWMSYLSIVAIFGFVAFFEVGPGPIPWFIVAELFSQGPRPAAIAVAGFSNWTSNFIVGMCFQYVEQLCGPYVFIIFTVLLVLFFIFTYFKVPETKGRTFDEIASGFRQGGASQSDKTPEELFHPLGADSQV

[4] = biological target: T3, Solute carrier family 2, facilitated glucose transporter member 4 (Homo sapiens, UniProt P14672); experiment: Antagonist activity at human GLUT4 expressed in HEK293 cells transfected with GLUT1 shRNA assessed as inhibition of [3H]2-deoxy-D-glucose uptake preincubated for 5 mins followed by [3H]2-deoxy-D-glucose addition and measured after 6 mins; assay type: cell-based
T3 sequence (P14672 whole entry): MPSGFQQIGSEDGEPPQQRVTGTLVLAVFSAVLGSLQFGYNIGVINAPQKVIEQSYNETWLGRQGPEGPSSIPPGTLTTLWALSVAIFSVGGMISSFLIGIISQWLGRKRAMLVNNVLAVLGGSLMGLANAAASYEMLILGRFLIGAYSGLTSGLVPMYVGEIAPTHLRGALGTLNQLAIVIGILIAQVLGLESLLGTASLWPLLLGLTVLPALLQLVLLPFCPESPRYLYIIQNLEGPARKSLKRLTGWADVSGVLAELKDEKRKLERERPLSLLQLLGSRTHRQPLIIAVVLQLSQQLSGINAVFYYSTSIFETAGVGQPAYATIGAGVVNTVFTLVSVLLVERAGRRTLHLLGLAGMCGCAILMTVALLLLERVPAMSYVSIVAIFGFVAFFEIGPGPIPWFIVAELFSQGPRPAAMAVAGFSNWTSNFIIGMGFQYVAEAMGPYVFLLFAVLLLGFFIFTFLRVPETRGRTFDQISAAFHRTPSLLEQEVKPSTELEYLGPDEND

[5] = biological target: T4, Solute carrier family 2, facilitated glucose transporter member 1 (Rattus norvegicus) (UniProt P11167); experiment: Displacement of ATB-BMPA from rat C-terminal 6His/Myc-tagged GLUT1 expressed in HEK293 cell low density microsome at 20 uM preincubated for 10 mins followed by ATB-BMPA addition measured after 10 mins; assay type: cell-based
T4 sequence (whole entry): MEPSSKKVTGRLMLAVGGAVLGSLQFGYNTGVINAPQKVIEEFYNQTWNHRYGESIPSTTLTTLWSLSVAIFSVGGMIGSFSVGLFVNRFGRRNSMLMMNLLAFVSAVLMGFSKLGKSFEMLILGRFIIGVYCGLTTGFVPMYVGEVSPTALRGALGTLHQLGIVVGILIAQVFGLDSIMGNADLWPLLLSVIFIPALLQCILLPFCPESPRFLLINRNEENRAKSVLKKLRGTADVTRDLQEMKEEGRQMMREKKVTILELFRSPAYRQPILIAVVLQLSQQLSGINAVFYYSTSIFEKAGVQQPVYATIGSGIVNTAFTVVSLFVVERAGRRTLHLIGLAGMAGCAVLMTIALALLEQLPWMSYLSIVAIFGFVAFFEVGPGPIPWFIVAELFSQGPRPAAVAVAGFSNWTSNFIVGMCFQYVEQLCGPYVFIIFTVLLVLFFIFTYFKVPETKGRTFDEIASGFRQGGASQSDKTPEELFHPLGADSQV

[6] = biological target: T5, Solute carrier family 2, facilitated glucose transporter member 4 (Rattus norvegicus) (UniProt P19357); experiment: Displacement of ATB-BMPA from rat C-terminal 6His/Myc-tagged GLUT4 expressed in HEK293 cell low density microsome at 20 uM preincubated for 10 mins followed by ATB-BMPA addition measured after 10 mins; assay type: cell-based
T5 sequence (whole entry): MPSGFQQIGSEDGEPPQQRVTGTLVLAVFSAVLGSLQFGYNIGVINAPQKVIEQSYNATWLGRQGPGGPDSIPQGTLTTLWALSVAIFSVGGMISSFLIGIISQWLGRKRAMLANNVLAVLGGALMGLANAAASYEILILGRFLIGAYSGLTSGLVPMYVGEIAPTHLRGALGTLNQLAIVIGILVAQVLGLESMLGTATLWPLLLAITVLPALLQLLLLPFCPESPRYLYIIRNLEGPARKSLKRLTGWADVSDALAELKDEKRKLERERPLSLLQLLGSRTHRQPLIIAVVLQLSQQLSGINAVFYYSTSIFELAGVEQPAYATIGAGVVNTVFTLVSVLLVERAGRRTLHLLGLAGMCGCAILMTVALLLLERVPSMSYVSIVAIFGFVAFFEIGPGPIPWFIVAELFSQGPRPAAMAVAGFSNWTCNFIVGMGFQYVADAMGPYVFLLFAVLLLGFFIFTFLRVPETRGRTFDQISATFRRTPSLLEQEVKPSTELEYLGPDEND

[7] = test system: Bone marrow cell; experiment: Cytotoxicity in multiple myeloma patient derived CD38(-)/CD45(-) non-myeloma bone marrow cells at 10 uM incubated for 48 hrs by CellTiter-Glo assay; assay type: cell-based; details: human
[8] = biological target: T6, Solute carrier family 2, facilitated glucose transporter member 4 (Homo sapiens) (UniProt P14672); experiment: Antagonist activity at GLUT4 in multiple myeloma patient derived CD38+ and phyocerythrin-negative myeloma cells assessed as increase in sensitivity to ABT-199-induced cytotoxicity by measuring cell death at 10 uM after 48 hrs by CellTiter-Glo assay
T6 sequence (whole entry): T3 sequence (P14672 whole entry)

[9] = biological target: T6, Solute carrier family 2, facilitated glucose transporter member 4 (Homo sapiens); experiment: Antagonist activity at GLUT4 in human MM1S cells assessed as increase in sensitivity to dexamethasone-induced cytotoxicity by measuring cell death at 10 uM after 72 hrs by CellTiter-Glo assay; assay type: cell-based
[10] = biological target: T6, Solute carrier family 2, facilitated glucose transporter member 4 (Homo sapiens); experiment: Antagonist activity at GLUT4 in human L363 cells assessed as reduction in MCL-1 protein expression at 15 uM after 18 hrs by immunoblot analysis; assay type: cell-based
[11] = biological target: T6, Solute carrier family 2, facilitated glucose transporter member 4 (Homo sapiens); experiment: Antagonist activity at GLUT4 in human JJN-3 cells assessed as reduction in MCL-1 protein expression at 15 uM after 18 hrs by immunoblot analysis; assay type: cell-based
[12] = biological target: T6, Solute carrier family 2, facilitated glucose transporter member 4 (Homo sapiens); experiment: Antagonist activity at GLUT4 in human JJN3 cells assessed as reduction in [3H]2-deoxy-D-glucose uptake preincubated for 5 to 6 mins followed by [3H]2-deoxy-D-glucose addition measured after 4 to 6 mins; assay type: cell-based
[13] = test system: JJN-3; experiment: Antiproliferative activity against human JJN-3 cells transfected with GLUT4 shRNA assessed as growth inhibition at 15 uM aftter 72 hrs by trypan blue dye-based cell counting analysis; assay type: functional
[14] = biological target: T6, Solute carrier family 2, facilitated glucose transporter member 4 (Homo sapiens); experiment: Antagonist activity at GLUT4 in human JJN-3 cells assessed as increase in sensitivity to ABT-199-induced cytotoxicity by measuring cell death at 10 uM after 72 hrs by CellTiter-Glo assay; assay type: cell-based
[15] = biological target: T6, Solute carrier family 2, facilitated glucose transporter member 4 (Homo sapiens); experiment: Antagonist activity at GLUT4 in human MM1S cells assessed as increase in sensitivity to melphalan-induced cytotoxicity by measuring cell death at 10 uM after 72 hrs by CellTiter-Glo assay; assay type: cell-based
[16] = test system: Bone marrow cell; experiment: Cytotoxicity in multiple myeloma patient derived CD38(-)/CD45(-) non-myeloma bone marrow cells at 10 uM in presence of ABT-199 incubated for 48 hrs by CellTiter-Glo assay; assay type: cell-based; details: human
[17] = test system: JJN-3; experiment: Inhibition of [3H]2-deoxy-D-glucose uptake in human JJN-3 cells transfected with GLUT4 shRNA preincubated for 5 to 6 mins followed by [3H]2-deoxy-D-glucose addition measured after 4 to 6 mins; assay type: functional, cell-based
[18] = test system: KMS-11; experiment: Cytotoxicity against human KMS11 cells after 72 hrs by AnnexinV/DAPI staining-based flow cytometric analysis; assay type: functional, cell-based
[19] = test system: Bone marrow cell; experiment: Cytotoxicity in multiple myeloma patient derived CD38(-)/CD45(-) non-myeloma bone marrow cells at 10 uM in presence of dexamethasone incubated for 48 hrs by CellTiter-Glo assay; assay type: cell-based; details: human
[20] = biological target: T6, Solute carrier family 2, facilitated glucose transporter member 4 (Homo sapiens); experiment: Antagonist activity at GLUT4 in multiple myeloma patient derived CD38+ and phyocerythrin-negative myeloma cells assessed as increase in sensitivity to dexamethasone-induced cytotoxicity by measuring cell death at 10 uM after 48 hrs by CellTiter-Glo assay
[21] = biological target: T6, Solute carrier family 2, facilitated glucose transporter member 4 (Homo sapiens); experiment: Antagonist activity at GLUT4 in human […] cells assessed as increase in sensitivity to ABT-199-induced cytotoxicity by measuring cell death at 10 uM after 72 hrs by CellTiter-Glo assay; assay type: cell-based
[22] = biological target: T7, GLUT1 (solute carrier family 2, facilitated glucose transporter member 1) (Rattus norvegicus, UniProt P11167); experiment: Displacement of ATB-BMPA from rat C-terminal 6His/Myc-tagged GLUT1 expressed in HEK293 cell low density microsome assessed as ATB-BMPA binding level at 20 uM preincubated for 10 mins followed by ATB-BMPA addition measured after 10 mins relative to control; assay type: cell-based; details: probe ATB-BMPA, read-out: Activity
T7 sequence (P11167 whole entry): T4 sequence (whole entry)

[23] = biological target: T5, Solute carrier family 2, facilitated glucose transporter member 4 (Rattus norvegicus); experiment: Displacement of ATB-BMPA from rat C-terminal 6His/Myc-tagged GLUT4 expressed in HEK293 cell low density microsome assessed as ATB-BMPA binding level at 20 uM preincubated for 10 mins followed by ATB-BMPA addition measured after 10 mins relative to control; assay type: cell-based

COc1ccc(C(=O)N(Cc2ccncc2)Cc2cccc(OCC3CCN(C(=O)OC(C)(C)C)CC3)c2)cc1
IC50 [1]: 5.1 µM

O=C(c1ccc(Cl)cc1)N(Cc1ccncc1)Cc1cccc(OCCc2ccc(F)cc2)c1
IC50 [1]: 13.1 µM

COc1ccc(C(=O)N(Cc2ccncc2)Cc2cccc(OCCc3ccc(F)cc3)c2)cc1
IC50 [2]: 6 µM | IC50 [3]: > 100 µM | IC50 [4]: 1.7 µM | Activity [5]: Active | Activity [6]: Active

COc1ccc(C(=O)N(Cc2ccncc2)Cc2cccc(OCC3CCCCC3)c2)cc1
IC50 [1]: 19.7 µM

COc1ccc(C(=O)N(Cc2ccncc2)Cc2cccc(OCc3cccc([N+](=O)[O-])c3)c2)cc1
IC50 [1]: 19.6 µM

COc1ccc(C(=O)N(Cc2ccncc2)Cc2cccc(OCCc3ccc(Br)cc3)c2)cc1
IC50 [1]: 8.4 µM

COc1ccc(CC(=O)N(Cc2ccncc2)Cc2cccc(OCCc3ccc(F)cc3)c2)cc1
IC50 [2]: > 100 µM | Activity [7]: Non-Toxic | inhibition [8]: Active | inhibition [9]: Active | IC50 [3]: > 100 µM | inhibition [10]: Active | inhibition [11]: inactive | inhibition [12]: Active | Activity [13]: inactive | inhibition [14]: Active | Activity [15]: Active | Activity [16]: Non-Toxic | inhibition [17]: Active | Activity [18]: Active | Activity [19]: Non-Toxic | IC50 [1]: 13.4 µM | inhibition [20]: Active | inhibition [21]: Active | activity at 10 min, 20 µM [22]: 35% | Activity [23]: 64%

COc1ccc(C(=O)N(Cc2ccncc2)Cc2cccc(OCCc3ccc(C)cc3)c2)cc1
IC50 [1]: 9.1 µM

COc1ccc(C(=O)N(Cc2ccncc2)Cc2cccc(OCc3ccc(F)cc3)c2)cc1
IC50 [1]: 22.7 µM

COc1ccc(C(=O)N(Cc2ccncc2)Cc2cccc(OCC(=O)c3ccc(Cl)cc3)c2)cc1
IC50 [1]: 18.5 µM
